Results: patent publication US20050150764A1 (priority 2001, published 2005)

Columns and labels:
[1] = test system: caterpillars of the army worm (Spodoptera exigua); assay: Spodoptera exigua test (Example D); assay type: in vivo; details: 500 ppm, after 6 days, cabbage leaves dipped
Description: (§1) Spodoptera exigua Test [table] To produce a suitable preparation of active compound, 1 part by weight of active compound is mixed with the stated amounts of solvent and emulsifier, and the concentrate is diluted with emulsifier-containing water to the desired concentration. Cabbage leaves (Brassica oleracea) are treated by being dipped into the preparation of active compound at the desired concentration and are populated with caterpillars of the army worm (Spodoptera exigua) while the leaves are still moist. After the desired period of time, the kill in % is determined. 100% means that all of the caterpillars have been killed: 0% denotes that no caterpillars have been killed.

[2] = test system: Heliothis virescens caterpillars; assay: Heliothis virescens test (Example A); assay type: in vivo; details: 500 ppm, after 6 days, soya shoots dipped
Description: Heliothis virescens Test [table] To produce a suitable preparation of active compound, 1 part by weight of active compound is mixed with the stated amounts of solvent and emulsifier, and the concentrate is diluted with emulsifier-containing water to the desired concentration. Soya shoots (Glycine max) are treated by being dipped into the preparation of active compound at the desired concentration and are populated with Heliothis virescens caterpillars while the leaves are still moist. After the desired period of time, the kill in % is determined. 100% means that all of the caterpillars have been killed: 0% denotes that no caterpillars have been killed.

[3] = test system: caterpillars of the cabbage moth (Plutella xylostella); assay: Plutella test (Example C); assay type: in vivo; details: 500 ppm, after 6 days, cabbage leaves dipped
Description: as §1, with “Plutella test” for “Spodoptera exigua Test”, “cabbage moth (Plutella xylostella)” for “army worm (Spodoptera exigua)”

Row | logP (logP (pH 2)) | melting point [°C] | Compound | kill [1] [%] | kill [2] [%] | kill [3] [%]
1 | 4.08 | 216 | N#Cc1cccc(C2=NN(C(=O)Nc3ccc(OC(F)(F)F)cc3)CCC2n2cc(Cl)cn2)c1 (stereo not shown) [Example 1, 3-(3-cyanophenyl)-4-(4-chloropyrazol-1-yl)-1-(4-trifluoromethoxyphenylamino)carbonyl-1,4,5,6-tetrahydropyridazine] | 100 | 100 | 100
2 | 2.29 | 171 | N#Cc1cccc(C2=NNCCC2n2cc(Cl)cn2)c1 (stereo not shown) [II-1, 3-(3-cyanophenyl)-4-(4-chloropyrazol-1-yl)-1,4,5,6-tetrahydropyridazine] |  |  | 
